Assay results as given in PubChem BioAssay (NCI).
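Interpolation was linear, between the two tested concentrations surrounding the appropriate level; five concentrations were tested over 48 hours in 96-well plates. TGI: concentration producing complete growth inhibition.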

Experiments:
Test in all cases: NCI-60 cell line screen, 48 h
786-0 renal = tested on: 786-0 renal
A498 renal = tested on: A498 renal
A549 NSCLC = tested on: A549 NSCLC
ACHN renal = tested on: ACHN renal
CAKI-1 renal = tested on: CAKI-1 renal
CCRF-CEM leukemia = tested on: CCRF-CEM leukemia
COLO 205 colon = tested on: COLO 205 colon
DLD-1 colon = tested on: DLD-1 colon
DMS 114 small cell lung = tested on: DMS 114 small cell lung
DMS 273 small cell lung = tested on: DMS 273 small cell lung
EKVX NSCLC = tested on: EKVX NSCLC
HCC-2998 colon = tested on: HCC-2998 colon
HCT-116 colon = tested on: HCT-116 colon
HCT-15 colon = tested on: HCT-15 colon
HL-60(TB) leukemia = tested on: HL-60(TB) leukemia
HOP-18 NSCLC = tested on: HOP-18 NSCLC
HOP-62 NSCLC = tested on: HOP-62 NSCLC
HOP-92 NSCLC = tested on: HOP-92 NSCLC
HT29 colon = tested on: HT29 colon
IGROV1 ovarian = tested on: IGROV1 ovarian
K-562 leukemia = tested on: K-562 leukemia
KM12 colon = tested on: KM12 colon
LOX IMVI melanoma = tested on: LOX IMVI melanoma
LXFL 529 NSCLC = tested on: LXFL 529 NSCLC
M19-MEL melanoma = tested on: M19-MEL melanoma
MALME-3M melanoma = tested on: MALME-3M melanoma
MOLT-4 leukemia = tested on: MOLT-4 leukemia
NCI-H226 lung = tested on: NCI-H226 lung
NCI-H23 lung = tested on: NCI-H23 lung
NCI-H460 lung = tested on: NCI-H460 lung
NCI-H522 lung = tested on: NCI-H522 lung
OVCAR-3 ovarian = tested on: OVCAR-3 ovarian
OVCAR-4 ovarian = tested on: OVCAR-4 ovarian
OVCAR-5 ovarian = tested on: OVCAR-5 ovarian
OVCAR-8 ovarian = tested on: OVCAR-8 ovarian
RPMI-8226 leukemia = tested on: RPMI-8226 leukemia
RXF-631 renal = tested on: RXF-631 renal
SF-268 CNS = tested on: SF-268 CNS
SF-295 CNS = tested on: SF-295 CNS
SF-539 CNS = tested on: SF-539 CNS
SK-MEL-2 melanoma = tested on: SK-MEL-2 melanoma
SK-MEL-28 melanoma = tested on: SK-MEL-28 melanoma
SK-MEL-5 melanoma = tested on: SK-MEL-5 melanoma
SK-OV-3 ovarian = tested on: SK-OV-3 ovarian
SN12C renal = tested on: SN12C renal
SNB-19 CNS = tested on: SNB-19 CNS
SNB-75 CNS = tested on: SNB-75 CNS
SNB-78 CNS = tested on: SNB-78 CNS
SW-620 colon = tested on: SW-620 colon
TK-10 renal = tested on: TK-10 renal
U251 CNS = tested on: U251 CNS
UACC-257 melanoma = tested on: UACC-257 melanoma
UACC-62 melanoma = tested on: UACC-62 melanoma
UO-31 renal = tested on: UO-31 renal
XF 498 CNS = tested on: XF 498 CNS
KM20L2 colon = tested on: KM20L2 colon
RXF 393 renal = tested on: RXF 393 renal
SR leukemia = tested on: SR leukemia

SMILES: COc1ccc(N=Nc2c(-c3ccccc3)nn(C(=O)CC(=O)Nc3ccc(OC)cc3)c2-c2ccccc2)cc1
- TGI (786-0 renal): > 100 µM
- TGI (A498 renal): > 100 µM
- TGI (A549 NSCLC): > 100 µM
- TGI (ACHN renal): > 100 µM
- TGI (CAKI-1 renal): > 100 µM
- TGI (CCRF-CEM leukemia): 53.1 µM
- TGI (COLO 205 colon): > 100 µM
- TGI (DLD-1 colon): > 100 µM
- TGI (DMS 114 small cell lung): > 100 µM
- TGI (DMS 273 small cell lung): > 100 µM
- TGI (EKVX NSCLC): > 100 µM
- TGI (HCC-2998 colon): > 100 µM
- TGI (HCT-116 colon): > 100 µM
- TGI (HCT-15 colon): > 100 µM
- TGI (HL-60(TB) leukemia): > 100 µM
- TGI (HOP-18 NSCLC): > 100 µM
- TGI (HOP-62 NSCLC): > 100 µM
- TGI (HOP-92 NSCLC): 50 µM
- TGI (HT29 colon): > 100 µM
- TGI (IGROV1 ovarian): > 100 µM
- TGI (K-562 leukemia): > 100 µM
- TGI (KM12 colon): > 100 µM
- TGI (LOX IMVI melanoma): > 100 µM
- TGI (LXFL 529 NSCLC): > 100 µM
- TGI (M19-MEL melanoma): > 100 µM
- TGI (MALME-3M melanoma): > 100 µM
- TGI (MOLT-4 leukemia): > 100 µM
- TGI (NCI-H226 lung): > 100 µM
- TGI (NCI-H23 lung): > 100 µM
- TGI (NCI-H460 lung): > 100 µM
- TGI (NCI-H522 lung): > 100 µM
- TGI (OVCAR-3 ovarian): > 100 µM
- TGI (OVCAR-4 ovarian): > 100 µM
- TGI (OVCAR-5 ovarian): > 100 µM
- TGI (OVCAR-8 ovarian): > 100 µM
- TGI (RPMI-8226 leukemia): > 100 µM
- TGI (RXF-631 renal): > 100 µM
- TGI (SF-268 CNS): > 100 µM
- TGI (SF-295 CNS): > 100 µM
- TGI (SF-539 CNS): 59 µM
- TGI (SK-MEL-2 melanoma): > 100 µM
- TGI (SK-MEL-28 melanoma): > 100 µM
- TGI (SK-MEL-5 melanoma): > 100 µM
- TGI (SK-OV-3 ovarian): > 100 µM
- TGI (SN12C renal): > 100 µM
- TGI (SNB-19 CNS): > 100 µM
- TGI (SNB-75 CNS): 37.9 µM
- TGI (SNB-78 CNS): > 100 µM
- TGI (SW-620 colon): > 100 µM
- TGI (TK-10 renal): > 100 µM
- TGI (U251 CNS): > 100 µM
- TGI (UACC-257 melanoma): > 100 µM
- TGI (UACC-62 melanoma): > 100 µM
- TGI (UO-31 renal): > 100 µM
- TGI (XF 498 CNS): 76.1 µM

SMILES: O=C1CCC2(c3ccccc3)OCC([C@@H](O)c3ccccc3)N12 (some centres undefined)
- TGI (786-0 renal): > 100 µM
- TGI (A498 renal): > 100 µM
- TGI (A549 NSCLC): > 100 µM
- TGI (ACHN renal): > 100 µM
- TGI (CAKI-1 renal): > 100 µM
- TGI (CCRF-CEM leukemia): > 100 µM
- TGI (COLO 205 colon): > 100 µM
- TGI (DLD-1 colon): > 100 µM
- TGI (DMS 114 small cell lung): > 100 µM
- TGI (DMS 273 small cell lung): > 100 µM
- TGI (EKVX NSCLC): > 100 µM
- TGI (HCT-116 colon): > 100 µM
- TGI (HCT-15 colon): > 100 µM
- TGI (HOP-18 NSCLC): > 100 µM
- TGI (HOP-62 NSCLC): > 100 µM
- TGI (HOP-92 NSCLC): > 100 µM
- TGI (HT29 colon): > 100 µM
- TGI (IGROV1 ovarian): > 100 µM
- TGI (K-562 leukemia): > 100 µM
- TGI (KM12 colon): > 100 µM
- TGI (KM20L2 colon): > 100 µM
- TGI (LOX IMVI melanoma): > 100 µM
- TGI (M19-MEL melanoma): > 100 µM
- TGI (MALME-3M melanoma): > 100 µM
- TGI (NCI-H23 lung): > 100 µM
- TGI (NCI-H460 lung): > 100 µM
- TGI (OVCAR-3 ovarian): > 100 µM
- TGI (OVCAR-4 ovarian): > 100 µM
- TGI (OVCAR-5 ovarian): > 100 µM
- TGI (OVCAR-8 ovarian): > 100 µM
- TGI (RPMI-8226 leukemia): > 100 µM
- TGI (RXF 393 renal): > 100 µM
- TGI (SF-268 CNS): > 100 µM
- TGI (SF-295 CNS): > 100 µM
- TGI (SF-539 CNS): > 100 µM
- TGI (SK-MEL-2 melanoma): > 100 µM
- TGI (SK-MEL-28 melanoma): > 100 µM
- TGI (SK-MEL-5 melanoma): > 100 µM
- TGI (SN12C renal): > 100 µM
- TGI (SNB-19 CNS): > 100 µM
- TGI (SNB-75 CNS): > 100 µM
- TGI (SNB-78 CNS): > 100 µM
- TGI (SR leukemia): > 100 µM
- TGI (SW-620 colon): > 100 µM
- TGI (TK-10 renal): > 100 µM
- TGI (U251 CNS): > 100 µM
- TGI (UACC-257 melanoma): > 100 µM
- TGI (UACC-62 melanoma): > 100 µM
- TGI (XF 498 CNS): > 100 µM
